# How the values were obtained:
# cancer stem cells USC-04 = experiment: MTT cytotoxicity assay on cancer stem cells USC-04; assay type: cell-based; conditions: Homo sapiens
# Excerpt: (§1) Verapamil is used as an inhibitor of drug efflux pump proteins such as P-glycoprotein.
# [1] = oral, cited from earlier work
# [2] = test system: glioma tumor cells (U251 cells); experiment: MTT cytotoxicity assay, glioma cells versus normal brain cells; assay type: cell-based, human; conditions: FIG. 14
# Excerpt: as §1
# [3] = test system: glioblastoma cancer stem cell line USC-02; experiment: MTT assay on glioblastoma cancer stem cells USC-02; assay type: cell-based, human
# Excerpt: as §1
# [4] = test system: normal stem cells mSVZ (mouse SVZ stem cells), brain endothelial cells (BECs) and astrocytes; experiment: Comparison of POH IC50 values, normal cells; assay type: cell-based; conditions: FIG. 18, normal cells
# [5] = test system: glioblastoma cancer stem cells (USC04); experiment: Sphere formation assay (SFA); assay type: cell-based, human; conditions: POH 0-1.5 mM for 6 days
# Procedure: USC04 cells were incubated with varying concentrations of POH (0-1.5 mM) for 6 days.
# VEGF = experiment: ELISA for VEGF secretion; assay type: cell-based; conditions: U87 human glioma cells, POH for 48 hours
# Procedure: (§2) ELISA was performed after cells were treated with POH for 48 hours.
# (§3) Pyrko et al. The unfolded protein response regulator GRP78/BiP as a novel target for increasing chemosensitivity in malignant gliomas. Cancer Res 67(20):9809-16, 2007. […] In addition, it may overcome the immunosuppressive functions of transforming growth factor beta-2 (TGFβ-2) secreted by glioma cells.
# U251 human glioma cells [6] = experiment: MTT cytotoxicity assay, POH combined with TMZ; assay type: cell-based; conditions: POH and TMZ, FIG. 5C
# Procedure: (§4) Cytotoxicity assays were carried out after cells were treated with POH in combination with temozolomide (TMZ), the standard alkylating agent used in the treatment of malignant gliomas. […] This effect was also seen in cell lines that were TMZ resistant.
# [7] = test system: CCAAT/enhancer binding protein (CHOP); experiment: Western blot apoptosis marker CHOP; assay type: cell-based, human; conditions: 20 hours
# Procedure: (§5) The treatments for different lanes of the Western blot are as follows: 1: No treatment; 2: 0.5 mM purified POH; 3: 1.5 mM purified POH; 4: 0.5 mM Sigma POH; 5: 1.5 mM Sigma POH; 6: 0.5 mM Wako POH; 7: 1.5 mM Wako POH; 8: Positive Control (DMC 40uM). Sigma POH is the POH purchased from Sigma Chemicals. Wako POH is the POH purchased from […]. Cells were treated with different agents or mock treated for 20 hours before being lysed.
# (§6) Sigma POH is the POH purchased from Sigma Chemicals.
# (§7) GRP78 is an anti-apoptotic protein the level of which is increased in response to stress. CHOP is a proapoptotic protein signaling for apoptosis. Pyrko et al. The unfolded protein response regulator GRP78/BiP as a novel target for increasing chemosensitivity in malignant gliomas. Cancer Research 67(20):9809-16, 2007.
# (§8) U251 TMZ-sensitive and TMZ-resistant (U251/TR1, U251/TR2) cells were treated with Sigma POH (1.5 mM) or purified POH (1.5 mM) for 20 hours, then Western blot was performed.
# [8] = test system: recurrent malignant gliomas; conditions: intranasal delivery, patients with recurrent malignant gliomas; cited from earlier work
# interleukin 8 (IL8) = experiment: ELISA for IL-8 secretion; assay type: cell-based; conditions: U87 human glioma cells, POH for 48 hours
# Procedure: as §2, §3
# [9] = test system: glucose-regulated protein 78 (GRP78); experiment: Western blot ER stress marker GRP78; assay type: cell-based, human; conditions: 20 hours
# Procedure: as §5, §6, §7, §8
# glioma = experiment: Boyden matrigel chamber invasion; assay type: cell-based
# U251 human glioma cells [10] = experiment: MTT cytotoxicity assay, POH combined with Nelfinavir; assay type: cell-based; conditions: FIG. 5B
# Excerpt: (§9) Pyrko et al. HIV-1 protease inhibitors nelfinavir and atazanavir induce malignant glioma death by triggering endoplasmic reticulum stress. Cancer Res 67(22): 10920-10928, 2007.
# [11] = test system: brain endothelial cells (BECs); experiment: Transepithelial electrical resistance (TEER), in vitro blood brain barrier model; assay type: cell-based; conditions: 0.03% POH for 20 hours, compared to medium only, 0.01% and 0.02% POH
# Procedure: In these experiments, brain endothelial cells (BECs) were used as an in vitro model of blood brain barrier. The increase in TEER in each group over time corresponds to increased confluency of the cells in culture. TEER decreased when cells were treated by 0.03% POH for 20 hours compared to medium only, 0.01% POH treatment, and 0.02% POH treatment.
# Transepithelial electrical resistance (TEER) assays were performed assessing the ability of POH to increase paracellular permeability (FIG. 7A). In these experiments, brain endothelial cells (BECs) were used as an in vitro blood brain barrier model. […] TEER decreased when cells were treated by 0.03% POH for 20 hours compared to medium only, 0.01% POH treatment, and 0.02% POH treatment. The increase in TEER in each group over time corresponds to increased confluency of the cells in culture.
# [12] = test system: cell lines that were TMZ resistant; experiment: Cytotoxicity assay, POH combined with TMZ, resistant lines; assay type: cell-based; conditions: POH and TMZ
# Procedure: as §4
# [13] = test system: U251, LN229 and U87 human glioma cells; experiment: MTT cytotoxicity assay, POH combined with DMC; assay type: cell-based; conditions: MTT and colony formation assays, FIG. 5A
# Excerpt: as §9
# glioma cells = experiment: Apoptosis / cell killing by rolipram with or without POH; assay type: cell-based
# Procedure: When cells were treated with rolipram alone, apoptosis occurred only after 48 hours post the addition of high concentrations of rolipram (e.g., 1 mM). Synergistic cell killing by rolipram and POH occurred within a much shorter time period, i.e., 6 hours after the addition of the drugs. Chen et al. The type IV phosphodiesterase inhibitor rolipram induces expression of the cell cycle inhibitors p21 Cip 1 and p27Kip1, resulting in growth inhibition, increased differentiation, and subsequent apoptosis of malignant A-12 glioma cells. Cancer Biology & Therapy, Vol. 1:3, 268-276, 2003.
# H-Ras [14] = experiment: H-ras production in glioblastoma cancer stem cells; assay type: cell-based, human; conditions: USC-02 and USC-04, POH for 24 hours
# Procedure: Two glioblastoma cancer stem cell lines (USC-02, USC-04) were treated by POH for 24 hours. USC-02 and USC-04 are two independent primary cancer stem cell lines isolated from glioblastoma tissue from two different patients.
# K-Ras = experiment: Western blot K-Ras expression; assay type: cell-based, human; conditions: U251 glioma cells, 24 hours
# Procedure: (§10) U251 glioma cells were treated with Sigma POH or purified POH for 24 hours, then Western blot was performed.
# H-Ras [15] = experiment: Western blot H-Ras expression; assay type: cell-based, human; conditions: U251 glioma cells, 24 hours
# Procedure: as §10
# [16] = test system: intracranial glioma model; experiment: Intracranial glioma model in athymic nu/nu mice, survival; assay type: in vivo; conditions: mice treated with TMZ; untreated about four weeks
# Procedure: Male athymic nu/nu mice (6-8 weeks old) will be employed for this research. Rodent subcutaneous/intracranial glioma model can be established as follows. Six to eight week old athymic nu/nu mice will be anesthesized with intraperitoneal injections of ketamine (80 mg/kg) and xylazine (10 mg/kg). For the intracranial glioma model, the mice are placed into a stereotactic head frame (Harvard Apparatus), and local anesthetic (0.2 cc of 0.25% xylocaine) is injected into the right frontal scalp. A knife blade is used to make a small incision, and a drill bit is used to make a small opening in the right frontal skull at the level of the coronal suture. Glioma cells (1×10^5 cells/10 μl), for example, U-87 human glioma cells, will be loaded into a calibrated Hamilton syringe. The needle tip will be placed precisely into the right frontal lobe of the […], and cells will be slowly injected using a control push from the Hamilton syringe. After the injection is finished, the syringe and needle will be removed, and the wound closed.
# Brains will be harvested, and tumor size determined. Survival curves will be constructed by following the mice until they develop neurological deficits. Our experience has been that survival is about four weeks after implantation for untreated mice, and up to 8 weeks for mice treated with TMZ.
# [17] = test system: U251 temozolomide-resistant cells (U251/TR1 and U251/TR2); assay type: cell-based, human
# Excerpt: (§11) U251/TR1 and U251/TR2 refer to two temozolomide-resistant U251 cell lines.
# [18] = test system: U251 temozolomide-resistant cells (U251/TR1); experiment: Colony formation assay on temozolomide-resistant U251; assay type: cell-based, human; conditions: FIG. 3C
# B16-F1 melanoma cells = experiment: Colony formation assay, POH plus radiation; assay type: cell-based; conditions: FIG. 4B
# Procedure: (§12) Cells were treated with 325 μM or 650 μM POH prior to radiation at the doses of 2, 5 or 10 Grays (Gy). […] This was confirmed for another human glioma cell line (U251) and also for a melanoma cell line (B16-F1) (FIG. 4B).
# human A172 glioma cells = experiment: Colony formation assay, POH plus radiation; assay type: cell-based; conditions: 325 μM or 650 μM POH prior to radiation at 2, 5 or 10 Gy
# Procedure: as §12
# [19] = test system: U251 human malignant glioma cells; experiment: Colony formation assay, POH plus radiation; assay type: cell-based; conditions: FIG. 4B
# Procedure: as §12
# [20] = test system: U251, U87, LN299 and A172 human glioma cells; assay type: cell-based
# [21] = test system: U251 human glioma cells (temozolomide-sensitive); assay type: cell-based
# Excerpt: as §11
# [22] = U251 TMZ-sensitive and TMZ-resistant (U251/TR1, U251/TR2) cells, 1.5 mM
smiles,measurement,setting,value
"Cc1ccc(C)c(-c2cc(C(F)(F)F)nn2-c2ccc(S(N)(=O)=O)cc2)c1 [DMC, dimethyl-celecoxib, reference compound]",EC50,cancer stem cells USC-04; FIG. 15B,78 µM
"C=C(C)[C@@H]1CC=C(CO)CC1 [POH, perillyl alcohol]",anti-cancer efficacy,[1],limited
same,tolerability,[1]; mainly gastrointestinal side effects,generally poorly tolerated
same,sensitivity of U251 cells to POH relative to brain endothelial cells (BECs) and astrocytes,[2],more sensitive
same,EC50,cancer stem cells USC-04; FIG. 15A,300 µM
same,POH IC50 compared among cell lines,"[3]; FIG. 18, USC-02 cells",most sensitive
same,sensitivity of USC-02 to POH relative to U251 cells or normal stem cells (mSVZ),"[3]; MTT, 48 hrs",more sensitive
same,POH IC50 compared among cell lines,[4],most resistant
same,number of spheres formed,[5],decreased the number of spheres
same,production of VEGF by glioma cells,VEGF,inhibited production
same,cytotoxicity in combination with temozolomide (TMZ),U251 human glioma cells [6],at least additive
same,level of CHOP,"[7]; U251, U87 and A172 cells",up-regulated
same,duration of disease remission in several patients,[8],≤ 3 years
same,patients achieving 6 month progression-free period,[8],50%
same,side effects from the treatment,[8],almost non-existent
same,production of interleukin 8 (IL8) by glioma cells,interleukin 8 (IL8),inhibited production
same,level of GRP78,"[9]; U251, U87 and A172 cells",up-regulated
same,glioma invasion,glioma,inhibit glioma invasion
same,cytotoxicity in combination with Nelfinavir (NFV),U251 human glioma cells [10],at least additive
same,TEER,[11],decreased
same,cytotoxicity in combination with temozolomide (TMZ),[12],also seen
same,cytotoxicity in combination with dimethyl-celecoxib (DMC),[13],at least additive
same,time after addition of the drugs at which synergistic cell killing occurred,glioma cells; rolipram and POH in combination,6 h
same,H-ras production,H-Ras [14],decreased H-ras production
"C=C(C)[C@@H]1CC=C(CO)CC1 [Sigma POH, (S)-perillyl alcohol]",K-Ras expression,K-Ras,decreased
same,H-Ras expression,H-Ras [15],decreased
"Cn1nnc2c(C(N)=O)ncn2c1=O [TMZ, temozolomide]",survival after implantation,[16],up to 8 weeks
"C=C(C)[C@@H]1CC=C(CO)CC1 [purified POH, (S)-perillyl alcohol]","cytotoxicity (MTT), cell killing",[17],effective in killing
same,colony formation,[18],efficacy
same,cytotoxicity in combination with radiation,B16-F1 melanoma cells,synergistic cytotoxicity
same,cell killing in combination with radiation,human A172 glioma cells,synergistically
same,cytotoxicity in combination with radiation,[19],synergistic cytotoxicity
same,expression of CHOP,[7]; [22],increased expression
same,expression of GRP-78,[9]; [22],increased expression
same,"cytotoxicity (MTT), cell killing",[20],efficacy
same,"cytotoxicity (MTT), cell killing",[21],effective in killing
"COc1ccc(C2CNC(=O)C2)cc1OC1CCCC1 (stereo not shown) [rolipram, reference compound]",time after addition at which apoptosis occurred,"glioma cells; rolipram alone, high concentrations (e.g., 1 mM)",≥ 48 h

# Source: patent publication US11970436B2, “Pharmaceutical compositions comprising monoterpenes” (NEONC Technologies, Inc., priority 2010, dated 2024)
